From patent publication US20150094321A1, “COMBINATION” (GlaxoSmithKline LLC, priority 2009, published 2015)

Assays:
NCIH358 = test: Cell line proliferation study; format: cell-based, human; settings: NCIH358, lung; for IC50: Homo sapiens, NCI-H358, 72 hours, read-out: gIC50
Method: In a separate study, combination drug tests with Compounds A and B were conducted using a panel of cell lines from human colon cancers (n=26), lung cancers (n=15) and pancreatic cancers (n=6). Cell lines were obtained from commercial vendors (ATCC and DSMZ). Cell lines were grown in RPMI-1640 supplemented with 2 mM glutamine, 1 mM sodium pyruvate and 10% fetal bovine serum (except for Capan-1 and HuP-T4 which were grown with 20% fetal bovine serum) and maintained at 37° C. and 5% CO2 in a humid incubator. Assays were performed in 384 well microtiter plates with optimum seeding densities for each cell line.
The test compounds were prepared as 10 mM stocks in 100% DMSO. Further dilutions of the compounds were made in DMSO. Compound A was diluted horizontally in a separate 96 well microtiter plate in rows D-G using a 3-fold dilution series for 10 dilution points. Compound B was similarly diluted horizontally in a 96 well microtiter plate in rows B-E using a 3-fold dilution series for 10 dilution points.
The two compounds were combined using equal volumes from each drug plate into cell culture media. […] Both Compound A and Compound B were individually titrated in rows B and C (for Compound B) and rows F and G (for Compound A) of the merged drug plate.
A 1:10 dilution of the drugs was performed in cell culture media prior to addition to the cells.
The final concentration range for the test compounds was 250 to 0.013 nM for Compound A and 1000 to […] for Compound B. The positive control consisted of culture media with DMSO at 0.1% and cells. The negative control consisted of culture media with DMSO at 0.1%. The cell lines were incubated at 37° C., 5% CO2 in humid air for 72 hours. Cell proliferation was measured using the CellTiter Glo (Promega) reagent according to the manufacturer's protocol. The plates are treated with CellTiter Glo solution and are analyzed for RLU (relative light units) using a Molecular Devices SpectraMax M5 plate reader.
The percent intensity values were used in model 205 of XLfit (IDBS, Inc.) in Microsoft Excel to calculate gIC50 values using a 4 parameter logistical fit. The midpoint of the growth window (the gIC50) falls half way between the number of cells at the time of compound addition (T=0) and the growth of control cells treated with DMSO at 72 hrs. The number of cells at time zero (T0) is divided from the intensity value at the bottom of the response curve (Ymin) to generate a measure for cell death (Ymin/T0). A value below 1 for Ymin/T0 indicates stronger potency to induce cell death with the treatment when compared to higher values. […]

KPL-1 = test: Cell growth inhibition assay; format: cell-based; settings: Homo sapiens; KPL-1, breast, PIK3CA E545K; single agent; read-out: IC50 Single Agent (mean +/- std)
Method: (§1) Human breast tumor lines. BT-474, HCC1419, HCC1937, HCC1954, HCC202, KPL-1, MDA-MB-157, MDA-MB-175-VII, MDA-MB-361, MDA-MB-453, SK-BR-3, SUM225PE, UACC893, and ZR-75-1; lung tumor line, CALU-3; and melanoma line, CHL-1, were from ATCC. Human breast tumor line JIMT-1 was from European Collection of Cell Cultures (UK). Human breast tumor lines SUM149PT, SUM190PT and SUM52PE were from Asterand. These lines were cultured in RPMI 1640 medium containing 10% fetal bovine serum (FBS). A head and neck tumor line, LICR LON HN5 (HN5), a gift from the Institute of Cancer Research, Surrey, U.K, was cultured in Dulbecco's modified Eagle medium (DMEM) containing 5% FBS; KPL-4 breast tumor cell line was kindly provided by Dr Junichi Kurebayashi (Kawasaki Medical School, Okayama, Japan) and cultured in DMEM containing 5% FBS. JIMT-1 is a line derived from a patient clinically resistant to trastuzumab (Herceptin®). BT-474-J4 is a single cell clone derived from a pool of BT-474 cells that were selected to grow in lapatinib to a concentration of 3 μM.
(§2) All cells were cultured for a minimum of 72 hours prior to cell plating. Cells were assayed in a 96-well tissue culture plate (NUNC 136102) of RPMI medium containing 10% FBS for all cells at 2,000 cells per well except KPL-4 and HN5 which were plated in DMEM containing 5% FBS at 500 cells per well. Approximately 24 hours after plating, cells were exposed to ten, two-fold or three-fold serial dilutions of compound or the combination of the two agents at a constant molar to molar ratio of 1:1 Compound A to Compound B in RPMI media containing 10% FBS or DMEM containing 5% FBS. Cells were incubated in the presence of compounds for 3 days. ATP levels were determined by adding Cell Titer Glo® (Promega) according to the manufacturer's protocol. Briefly, Cell Titer Glo® was added each plate, incubated for 20 minutes then luminescent signal was read on the SpectraMax L plate reader with a 0.5 sec integration time.
(§3) Inhibition of cell growth was estimated after treatment with compound or combination of compounds for three days and comparing the signal to cells treated with vehicle (DMSO). Cell growth was calculated relative to vehicle (DMSO) treated control wells. Concentration of compound that inhibits 50% of control cell growth (IC50) was interpolated using nonlinear regression with the equation, y=(A+(B−A)/(1+(C/x)̂D))), where A is the minimum response (ymin), B is the maximum response (ymax), C is the inflection point of the curve (EC50) and D is the Hill coefficient. […]

HCC1937 = test: Cell growth inhibition assay; format: cell-based; settings: Homo sapiens; HCC1937, breast, PTEN low; single agent; read-out: IC50 Single Agent (mean +/- std)
Method: as §1, §2, §3

MDA-MB-157 = test: Cell growth inhibition assay; format: cell-based; settings: Homo sapiens; MDA-MB-157, breast, WT; single agent; read-out: IC50 Single Agent (mean +/- std)
Method: as §1, §2, §3

BT-474 = test: Cell growth inhibition assay; format: cell-based; settings: Homo sapiens; BT-474, breast, HER2+, PIK3CA K111N; single agent; read-out: IC50 Single Agent (mean +/- std)
Method: as §1, §2, §3

SK-BR-3 = test: Cell growth inhibition assay; format: cell-based; settings: Homo sapiens; SK-BR-3, breast, HER2+, WT; single agent; read-out: IC50 Single Agent (mean +/- std)
Method: as §1, §2, §3

HCC202 = test: Cell growth inhibition assay; format: cell-based; settings: Homo sapiens; HCC202, breast, HER2+, PIK3CA E545K; single agent; read-out: IC50 Single Agent (mean +/- std)
Method: as §1, §2, §3

HCC1419 = test: Cell growth inhibition assay; format: cell-based; settings: Homo sapiens; HCC1419, breast, HER2+, WT; single agent; read-out: IC50 Single Agent (mean +/- std)
Method: as §1, §2, §3

| IC50 (HCC1937) | IC50 (MDA-MB-157) | IC50 (BT-474) | IC50 (SK-BR-3) | IC50 (HCC202) | IC50 (HCC1419) | SMILES | IC50 (NCIH358) | Ymin/T0 (NCIH358) | IC50 (KPL-1) |
| --- | --- | --- | --- | --- | --- | --- | --- | --- | --- |
| > 1 µM | > 1 µM | > 1 µM | > 1 µM | > 1 µM | > 1 µM | CC(=O)Nc1cccc(-n2c(=O)n(C3CC3)c(=O)c3c(Nc4ccc(I)cc4F)n(C)c(=O)c(C)c32)c1 [Compound A, N-{3-[3-cyclopropyl-5-(2-fluoro-4-iodo-phenylamino)-6,8-dimethyl-2,4,7-trioxo-3,4,6,7-tetrahydro-2H-pyrido[4,3-d]pyrimidin-1-yl]phenyl}acetamide] | 0.0173 µM | 10.7 | > 1 µM |
| > 1 µM | > 1 µM | > 1 µM | > 1 µM | > 1 µM | > 1 µM | Cn1ncc(Cl)c1-c1cc(C(=O)N[C@H](CN)Cc2ccc(F)c(F)c2)oc1Cl [Compound B, N-{(1S)-2-amino-1-[(3,4-difluorophenyl)methyl]ethyl}-5-chloro-4-(4-chloro-1-methyl-1H-pyrazol-5-yl)-2-furancarboxamide] | > 1 µM | 37.2 | > 1 µM |
